Columns and labels:
[1] = tested on: Botrytis cinerea; experiment: Test B: gray mold, preventive spray on tomato seedlings; settings: 100 = 100% disease control; for Test B rating (% disease control): gray mold on tomato, 0 = no control; for Test B disease control rating: 10 ppm test solution, 0 = no control relative to controls
[2] = tested on: Zymoseptoria tritici; experiment: Test E: wheat leaf blotch, preventive spray on wheat seedlings; settings: 100 = 100% disease control; for Test E rating (% disease control): wheat leaf blotch, 0 = no control; for Test E disease control rating: 10 ppm test solution, 0 = no control relative to controls
[3] = tested on: Erysiphe graminis f sp. tritici; experiment: Test G: wheat powdery mildew, preventive spray on wheat seedlings; settings: 100 = 100% disease control; for Test G rating (% disease control): wheat powdery mildew, 0 = no control; for Test G disease control rating: 10 ppm test solution, 0 = no control relative to controls
[4] = tested on: Puccinia recondita f sp. tritici; experiment: Test F: wheat leaf rust, preventive spray on wheat seedlings; settings: 100 = 100% disease control; for Test F rating (% disease control): wheat leaf rust, 0 = no control; for Test F disease control rating: 10 ppm test solution, 0 = no control relative to controls
[5] = tested on: Stagonospora nodorum; experiment: Test D: wheat glume blotch, preventive spray on wheat seedlings; settings: 100 = 100% disease control; for Test D rating (% disease control): wheat glume blotch, 0 = no control; for Test D disease control rating: 10 ppm test solution, 0 = no control relative to controls

| Structure (SMILES) | Test B rating (% disease control) ([1]; 10 ppm) [%] | Test E rating (% disease control) ([2]; 10 ppm) [%] | Test G rating (% disease control) ([3]; 10 ppm) [%] | Test F rating (% disease control) ([4]; 10 ppm) [%] | Test D rating (% disease control) ([5]; 10 ppm) [%] | Test E disease control rating [2] [%] | Test F disease control rating [4] [%] | Test D disease control rating [5] [%] | Test G disease control rating [3] [%] | other results |
| --- | --- | --- | --- | --- | --- | --- | --- | --- | --- | --- |
| CC(C)(C)C(O)(Cn1cncn1)C1=NOC(COc2ccc(OC(F)(F)F)cc2)C1 (single isomer, unassigned) [Compound 25] | 0 | 0 | 100 | 99 | 59 | – | – | – | – | – |
| CC(C)(C)C(O)(Cn1cncn1)C1=NOC(COc2ccc(Cl)cc2)C1 (stereo not drawn) [Compound 174, α-[5-[(4-chlorophenoxy)methyl]-4,5-dihydro-3-isoxazolyl]-α-(1,1-dimethylethyl)-1H-1,2,4-triazole-1-ethanol] | 58 | 12 | 100 | 100 | 100 | – | – | – | – | – |
| OC(Cn1cncn1)(C1=NOC(c2ccc(Cl)cc2)C1)c1ccc(C(F)(F)F)cc1 (single isomer, unassigned) [Compound 106] | 0 | 0 | 89 | 72 | 0 | – | – | – | – | – |
| CC(C)(C)CC1CC(C(O)(Cn2cncn2)c2ccc(Cl)cc2)=NO1 (single isomer, unassigned) [Compound 76] | 0 | 0 | 89 | 0 | 0 | – | – | – | – | – |
| OC(Cn1cncn1)(C1=NOC(c2ccc(-n3cc(Br)cn3)cc2)C1)c1ccc(Cl)cc1 (single isomer, unassigned) [Compound 5] | 0 | 48 | 100 | 100 | 40 | – | – | – | – | – |
| CCC(C)(C)C(O)(Cn1cncn1)C1=NOC(COc2ccc(Cl)cc2)C1 (single isomer, unassigned) [Compound 186] | 99 | 66 | 100 | 100 | 100 | – | – | – | – | – |
| OC(Cn1cncn1)(C1=NOC(c2ccc(Cl)cc2)C1)c1cccc(Oc2ccccc2)c1 (single isomer, unassigned) [Compound 110] | 0 | 72 | 48 | 21 | 0 | – | – | – | – | – |
| Cn1nc(C(F)(F)F)cc1OCC1CC(C(O)(Cn2cncn2)C(C)(C)C)=NO1 (single isomer, unassigned) [Compound 47] | 19 | 3 | 84 | 76 | 0 | – | – | – | – | – |
| OC(Cn1cncn1)(C1=NOC(COc2ccccc2)C1)c1ccc(Cl)cc1 (single isomer, unassigned) [Compound 145] | 0 | 28 | 88 | – | – | – | – | – | – | – |
| OC(Cn1cncn1)(C1=NOC(c2ccc(Cl)cc2)C1)c1ccc(Oc2ccccc2)cc1 (single isomer, unassigned) [Compound 128] | – | – | – | – | – | – | – | – | – | Test B rating (% disease control) ([1]; 50 ppm (asterisk)): 0%; Test E rating (% disease control) ([2]; 50 ppm (asterisk)): 95%; Test G rating (% disease control) ([3]; 50 ppm (asterisk)): 99%; Test F rating (% disease control) ([4]; 50 ppm (asterisk)): 100%; Test D rating (% disease control) ([5]; 50 ppm (asterisk)): 100% |
| CC1(COc2ccc(Cl)cc2)CC(C(O)(Cn2cncn2)C(C)(C)C)=NO1 (single isomer, unassigned) [Compound 217] | – | – | – | – | – | 0 | 100 | 92 | – | Test B disease control rating [1]: 0% |
| CC#CC(O)(Cn1cncn1)C1=NOC(c2ccc(Cl)cc2)C1 (stereo not drawn) [Compound 103, α-[5-(4-chlorophenyl)-4,5-dihydro-3-isoxazolyl]-α-1-propyn-1-yl-1H-1,2,4-triazole-1-ethanol] | 0 | 0 | 92 | 94 | – | – | – | – | – | – |
| CC1(COc2ccc(Cl)cc2)CC(C(O)(Cn2cncn2)C(C)(C)C)=NO1 (single isomer, unassigned) [Compound 216] | – | – | – | – | – | 0 | 100 | 86 | – | Test B disease control rating [1]: 0% |
| OC(Cn1cncn1)(C1=NOC(COc2ncc(Cl)cn2)C1)c1ccc(Cl)cc1 (single isomer, unassigned) [Compound 166] | 0 | 0 | – | 41 | 0 | – | – | – | – | – |
| CC1(COc2ccc(Cl)cc2)CC(C(O)(Cn2cncn2)c2ccc(Cl)cc2)=NO1 (single isomer, unassigned) [Compound 219] | – | – | – | – | – | 0 | 95 | 0 | – | Test B disease control rating [1]: 0% |
| CC1(COc2ccc(Cl)cc2)CC(C(O)(Cn2cncn2)c2ccc(Cl)cc2)=NO1 (single isomer, unassigned) [Compound 218] | – | – | – | – | – | 0 | 100 | 21 | – | Test B disease control rating [1]: 0% |
| CC(C)(C)C(O)(Cn1cncn1)C1=NOC(COc2cccc(C(F)(F)F)c2)C1 (single isomer, unassigned) [Compound 254] | – | – | – | – | – | 0 | 100 | 99 | 99 | – |
| COc1ccc(OCC2CC(C(O)(Cn3cncn3)C(C)(C)C)=NO2)cc1 (single isomer, unassigned) [Compound 259] | – | – | – | – | – | 0 | 92 | 99 | 99 | – |
| CC(C)(C)C(O)(Cn1cncn1)C1=NOC(COc2ccc(Cl)cc2)C1 (single isomer, unassigned) [Compound 243] | – | – | – | – | – | 0 | 99 | 0 | 0 | – |
| OC(Cn1cncn1)(C1=NOC(Cc2ccc(-c3ccccc3)cc2)C1)c1ccc(Cl)cc1 (single isomer, unassigned) [Compound 204] | – | 0 | 99 | 100 | 77 | – | – | – | – | – |
| CC(C)(C)C(O)(Cn1cncn1)C1=NOC(COc2ccc(-c3ccccc3)cc2)C1 (single isomer, unassigned) [Compound 228] | – | – | – | – | – | 12 | 86 | 0 | 99 | – |
| OC(Cn1cncn1)(C1=NOC(COc2ncc(Cl)cn2)C1)c1ccc(Cl)cc1 (single isomer, unassigned) [Compound 167] | 0 | 0 | – | 98 | 0 | – | – | – | – | – |
| CC(C)(C)C(O)(Cn1cncn1)C1=NOC(COCc2ccc(Cl)cc2)C1 (single isomer, unassigned) [Compound 263] | – | – | – | – | – | 0 | 87 | 99 | 99 | – |
| CCC(C)(C)C(O)(Cn1cncn1)C1=NOC(COc2ccc(F)cc2)C1 (single isomer, unassigned) [Compound 249] | – | – | – | – | – | 0 | 100 | 100 | 100 | – |
| CC(C)(C)C(O)(Cn1cnnn1)C1=NOC(COc2ccc(Cl)cc2)C1 (centres unmarked) [Compound 247] | – | – | – | – | – | 24 | 97 | 0 | 0 | – |
| CC(C)(C)CC(O)(Cn1cncn1)C1=NOC(COc2ccc(F)cc2)C1 (single isomer, unassigned) [Compound 244] | – | – | – | – | – | 0 | 100 | 99 | 99 | – |
| CC(C)(C)C(O)(Cn1cncn1)C1=NOC(COc2ccc(Cl)cc2Cl)C1 (single isomer, unassigned) [Compound 256] | – | – | – | – | – | 0 | 100 | 97 | 99 | – |
| CCC(C)(C)C(O)(Cn1cncn1)C1=NOC(COc2ccc(F)cc2)C1 (single isomer, unassigned) [Compound 250] | – | – | – | – | – | 0 | 99 | 64 | 99 | – |
| CC(C)(C)C(O)(Cn1cncn1)C1=NOC(COc2ccc(Cl)c(Cl)c2)C1 (single isomer, unassigned) [Compound 257] | – | – | – | – | – | 29 | 100 | 100 | 100 | – |
| CC(C)CC(O)(Cn1cncn1)C1=NOC(COc2ccc(Cl)cc2)C1 (single isomer, unassigned) [Compound 268] | – | – | – | – | – | 0 | 100 | 82 | 95 | – |
